In one experiment the target is T1, human Nav1.7 (Homo sapiens, UniProt Q15858).
T1 construct: expressed in transfected cells
The experiment is described as follows: PatchXpress sodium current measurement, inactivated state block, Nav1.7. The class given is cell-based. The following applies: channels stably expressed in HEK 293 cells, double-pulse protocol, 22° C. As to the method: (§1) Cell Based Assays for Nav 1.7 and Nav 1.5 Activity
(§2) Compounds were tested on human Nav1.7 and Nav1.5 channels stably expressed in HEK 293 cells.
(§3) Sodium Current Measurements on the PatchXpress 7000:
(§4) To measure inactivated state block of sodium channels, test compounds were characterized in an automated PatchXpress® assay (Molecular Devices) using a double-pulse protocol on human Nav1.7 and Nav1.5 channels stably expressed in HEK 293 cells. Cells were held at a potential 20 mV negative to the potential at which ˜50% of the channels are inactivated. A 8000 ms pre-pulse 7 mV positive to the potential at which ˜50% of the channels are inactivated was given followed by a hyperpolarizing 2 ms pulse to −120 mV and a 20 ms test pulse to −20 mV. The protocol was applied to cells in the absence, presence of compound and after washout. The temperature of PatchXpress® instruments was maintained at 22° C. The following recording solutions were used. Internal solution (mM): 30 CsCl, 5 HEPES, 10 EGTA, 120 CsF, 5 NaF, 2 MgCl2, pH 7.3 with CsOH. External solution (mM): 120 NMDG, 40 NaCl, 1 KCl, 0.5 MgCl2, 5 HEPES, 2.7 CaCl2, pH 7.5 with NMDG-OH. Estimated IC50 values were calculated based on at least two compound concentrations tested. For all electrophysiology experiments, offline analysis was used to correct for current rundown and to determine percent inhibition as a function of drug concentration. IC50 values were determined by fitting to the Hill equation.

A further experiment has as its target T2, human Nav1.5 (Homo sapiens, UniProt Q14524).
T2 construct: expressed in transfected cells
The experiment is described as follows: PatchXpress sodium current measurement, inactivated state block, Nav1.5. The following applies: determined by PatchXpress measurement, HEK 293 cells. The class given is cell-based. How it is done: as §1, §2, §3, §4

Setting [1] is: read-out: potency for the Nav 1.7 sodium ion channel (1.7=).

The results in this text go back to US9624208B2, “Benzoxazolinone compounds with selective activity in voltage-gated sodium channels” (Merck Sharp & Dohme Corp., priority 2012, dated 2017).

Several values for one entry are separate records, joined by “and”; a condition that tells them apart may be missing. Equal entries are not always repeated. Where two headings read alike, the source gives them in different places.

T1 sequence (Q15858 whole entry): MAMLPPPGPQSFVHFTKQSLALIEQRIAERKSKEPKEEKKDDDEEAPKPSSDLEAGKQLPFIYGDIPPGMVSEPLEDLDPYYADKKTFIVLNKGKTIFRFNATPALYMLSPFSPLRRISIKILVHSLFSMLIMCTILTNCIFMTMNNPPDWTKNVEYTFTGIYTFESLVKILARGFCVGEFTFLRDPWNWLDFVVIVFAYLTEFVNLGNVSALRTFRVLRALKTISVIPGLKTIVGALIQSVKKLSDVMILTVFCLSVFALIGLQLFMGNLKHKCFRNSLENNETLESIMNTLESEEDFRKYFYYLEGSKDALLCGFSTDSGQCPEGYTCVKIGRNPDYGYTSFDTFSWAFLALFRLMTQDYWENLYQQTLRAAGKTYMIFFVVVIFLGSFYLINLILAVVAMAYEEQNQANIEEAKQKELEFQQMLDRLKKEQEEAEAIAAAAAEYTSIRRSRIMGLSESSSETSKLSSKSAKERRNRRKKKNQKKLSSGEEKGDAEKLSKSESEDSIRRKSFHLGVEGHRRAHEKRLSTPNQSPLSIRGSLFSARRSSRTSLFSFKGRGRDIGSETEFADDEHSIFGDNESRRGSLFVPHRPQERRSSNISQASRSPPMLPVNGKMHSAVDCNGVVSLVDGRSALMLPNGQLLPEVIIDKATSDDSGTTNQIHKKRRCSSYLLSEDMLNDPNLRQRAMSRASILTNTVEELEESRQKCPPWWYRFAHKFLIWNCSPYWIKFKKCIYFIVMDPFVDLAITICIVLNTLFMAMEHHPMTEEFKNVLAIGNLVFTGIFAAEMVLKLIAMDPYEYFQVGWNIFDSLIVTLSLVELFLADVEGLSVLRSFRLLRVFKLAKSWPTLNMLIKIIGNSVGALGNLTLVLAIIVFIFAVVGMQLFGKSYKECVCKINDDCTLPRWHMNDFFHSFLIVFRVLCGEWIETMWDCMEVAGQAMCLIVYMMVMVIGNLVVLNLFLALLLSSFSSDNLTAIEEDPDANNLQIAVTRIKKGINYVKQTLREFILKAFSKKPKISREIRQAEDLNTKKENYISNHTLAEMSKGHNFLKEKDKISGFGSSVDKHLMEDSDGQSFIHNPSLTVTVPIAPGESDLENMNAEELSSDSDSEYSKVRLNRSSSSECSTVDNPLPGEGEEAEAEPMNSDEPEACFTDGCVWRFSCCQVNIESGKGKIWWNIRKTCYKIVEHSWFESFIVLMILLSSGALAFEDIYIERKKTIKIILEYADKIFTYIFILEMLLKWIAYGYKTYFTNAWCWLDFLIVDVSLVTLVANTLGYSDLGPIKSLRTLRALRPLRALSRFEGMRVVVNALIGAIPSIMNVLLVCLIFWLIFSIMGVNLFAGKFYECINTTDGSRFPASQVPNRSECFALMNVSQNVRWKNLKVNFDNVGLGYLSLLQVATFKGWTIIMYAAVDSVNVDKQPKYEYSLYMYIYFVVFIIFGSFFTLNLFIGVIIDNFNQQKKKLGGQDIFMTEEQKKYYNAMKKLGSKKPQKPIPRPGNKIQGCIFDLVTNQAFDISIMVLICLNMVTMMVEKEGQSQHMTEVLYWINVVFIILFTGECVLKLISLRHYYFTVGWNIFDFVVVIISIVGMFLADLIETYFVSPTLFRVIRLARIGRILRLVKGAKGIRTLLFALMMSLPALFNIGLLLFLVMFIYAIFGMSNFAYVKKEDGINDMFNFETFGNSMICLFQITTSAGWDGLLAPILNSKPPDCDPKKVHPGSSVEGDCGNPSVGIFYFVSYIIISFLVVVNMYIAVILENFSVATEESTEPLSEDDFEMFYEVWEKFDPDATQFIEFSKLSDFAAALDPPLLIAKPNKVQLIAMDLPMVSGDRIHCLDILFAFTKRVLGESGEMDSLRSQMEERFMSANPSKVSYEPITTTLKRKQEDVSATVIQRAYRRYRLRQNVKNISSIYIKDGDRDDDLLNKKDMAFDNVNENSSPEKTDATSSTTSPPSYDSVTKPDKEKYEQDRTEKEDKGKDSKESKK
T2 sequence (Q14524 whole entry): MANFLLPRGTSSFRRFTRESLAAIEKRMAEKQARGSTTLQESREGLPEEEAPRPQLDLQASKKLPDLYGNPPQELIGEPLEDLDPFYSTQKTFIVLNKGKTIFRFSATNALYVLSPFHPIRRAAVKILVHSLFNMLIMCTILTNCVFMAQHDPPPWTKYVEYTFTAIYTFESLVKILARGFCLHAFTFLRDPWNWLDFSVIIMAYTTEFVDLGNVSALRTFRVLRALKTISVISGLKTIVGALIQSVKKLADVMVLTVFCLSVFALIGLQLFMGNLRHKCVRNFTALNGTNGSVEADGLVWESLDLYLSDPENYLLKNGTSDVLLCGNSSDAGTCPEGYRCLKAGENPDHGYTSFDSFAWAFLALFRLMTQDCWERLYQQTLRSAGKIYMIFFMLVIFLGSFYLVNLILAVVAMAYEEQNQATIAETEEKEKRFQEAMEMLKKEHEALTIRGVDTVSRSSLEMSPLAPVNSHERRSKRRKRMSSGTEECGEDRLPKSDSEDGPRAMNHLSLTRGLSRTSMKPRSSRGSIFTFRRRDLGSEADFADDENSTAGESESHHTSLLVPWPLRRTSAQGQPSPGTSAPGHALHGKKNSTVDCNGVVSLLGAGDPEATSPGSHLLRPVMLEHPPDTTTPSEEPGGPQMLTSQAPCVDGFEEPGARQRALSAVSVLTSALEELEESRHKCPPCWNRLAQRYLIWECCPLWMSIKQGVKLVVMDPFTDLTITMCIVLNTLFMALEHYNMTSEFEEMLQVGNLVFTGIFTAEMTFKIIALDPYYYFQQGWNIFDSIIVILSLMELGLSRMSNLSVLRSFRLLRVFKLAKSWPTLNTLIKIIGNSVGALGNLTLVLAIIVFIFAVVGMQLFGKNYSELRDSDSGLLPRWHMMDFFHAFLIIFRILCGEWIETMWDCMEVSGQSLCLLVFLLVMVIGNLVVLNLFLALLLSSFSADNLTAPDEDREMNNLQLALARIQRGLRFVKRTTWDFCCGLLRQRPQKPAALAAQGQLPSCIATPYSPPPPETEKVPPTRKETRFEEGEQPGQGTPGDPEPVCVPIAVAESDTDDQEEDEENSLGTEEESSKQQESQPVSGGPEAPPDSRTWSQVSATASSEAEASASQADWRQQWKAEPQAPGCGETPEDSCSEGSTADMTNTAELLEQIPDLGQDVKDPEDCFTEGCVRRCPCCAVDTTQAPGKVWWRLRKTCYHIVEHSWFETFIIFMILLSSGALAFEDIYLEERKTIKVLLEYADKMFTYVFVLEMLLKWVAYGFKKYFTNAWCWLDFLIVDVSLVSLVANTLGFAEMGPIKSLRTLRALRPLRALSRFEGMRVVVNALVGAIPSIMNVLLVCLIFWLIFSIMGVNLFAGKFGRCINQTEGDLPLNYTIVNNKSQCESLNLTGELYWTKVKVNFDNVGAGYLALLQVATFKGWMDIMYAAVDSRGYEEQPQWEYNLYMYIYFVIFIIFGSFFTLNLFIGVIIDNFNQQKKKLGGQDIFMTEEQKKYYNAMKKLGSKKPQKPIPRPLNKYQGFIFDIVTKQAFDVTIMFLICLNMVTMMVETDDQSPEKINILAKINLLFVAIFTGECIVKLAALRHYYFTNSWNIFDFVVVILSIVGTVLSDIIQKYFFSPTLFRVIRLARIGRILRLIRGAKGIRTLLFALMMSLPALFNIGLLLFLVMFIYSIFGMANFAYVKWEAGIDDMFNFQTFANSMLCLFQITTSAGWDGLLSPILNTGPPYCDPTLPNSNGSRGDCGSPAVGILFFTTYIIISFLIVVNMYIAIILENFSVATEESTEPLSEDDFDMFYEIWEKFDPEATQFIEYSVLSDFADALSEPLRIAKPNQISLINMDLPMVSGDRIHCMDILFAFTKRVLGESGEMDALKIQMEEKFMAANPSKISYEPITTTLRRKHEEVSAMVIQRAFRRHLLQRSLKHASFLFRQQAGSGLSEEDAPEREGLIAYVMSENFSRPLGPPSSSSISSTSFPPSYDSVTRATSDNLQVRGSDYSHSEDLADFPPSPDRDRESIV

Turning to `C[C@H](c1ccccc1C#C[C@H]1CCCC[C@@H]1N)n1c(=O)oc2cc(S(=O)(=O)Nc3cccc(F)n3)c(F)cc21` (mixture of isomers) [Ex8-5, 3-[(1R)-1-(2-{[(1R,2S and 1S, 2R)-2-aminocyclohexyl]ethynyl}phenyl)ethyl]-5-fluoro-N-(6-fluoropyridin-2-yl)-2-oxo-2,3-dihydro-1,3-benzoxazole-6-sulfonamide], at human Nav1.7 (setting [1]), the IC50 was determined as 25 nM. Besides, the “ratio of Nav 1.5:Nav 1.7 potency” value on human Nav1.5 was found to be 714.
Take `Cl.O=c1oc2cc(S(=O)(=O)Nc3cccc(F)n3)c(F)cc2n1Cc1cccc2c1CNCC2F` (racemic) [Ex5-9, (+/−)-5-Fluoro-3-((4-fluoro-1,2,3,4-tetrahydroisoquinolin-8-yl)methyl)-N-(6-fluoropyridin-2-yl)-2-oxo-2,3-dihydrobenzo[d]oxazole-6-sulfonamide hydrochloride]: the IC50 on human Nav1.7 (setting [1]) amounted to 1140 nM. The “ratio of Nav 1.5:Nav 1.7 potency” value on human Nav1.5 amounted to 26.
In the same order, the values of `Cl.NC1CCc2cccc(Cn3c(=O)oc4cc(S(=O)(=O)Nc5cccc(F)n5)c(F)cc43)c2C1` (single isomer, unassigned) [Ex13-4, (S or R)-3-((7-Amino-5,6,7,8-tetrahydronaphthalen-1-yl)methyl)-5-fluoro-N-(6-fluoropyridin-2-yl)-2-oxo-2,3-dihydrobenzo[d]oxazole-6-sulfonamide hydrochloride] are 89 nM and 304.
Regarding `NC1CCc2cccc(Cn3c(=O)oc4cc(S(=O)(=O)Nc5cccc(F)n5)c(F)cc43)c2C1` (single isomer, unassigned) [Ex13-5, (R or S)-3-[(7-amino-5,6,7,8-tetrahydronaphthalen-1-yl)methyl]-5-fluoro-N-(6-fluoropyridin-2-yl)-2-oxo-2,3-dihydro-1,3-benzoxazole-6-sulfonamide], the IC50 at human Nav1.7 (setting [1]) was found to be 40 nM. Further, the “ratio of Nav 1.5:Nav 1.7 potency” value on human Nav1.5 turned out to be 914.
Consider `NC1CCc2cccc(Cn3c(=O)oc4cc(S(=O)(=O)Nc5cccc(F)n5)ccc43)c2C1` (single isomer, unassigned) [Ex13-6, (S or R)-3-[(7-amino-5,6,7,8-tetrahydronaphthalen-1-yl)methyl]-N-(6-fluoropyridin-2-yl)-2-oxo-2,3-dihydro-1,3-benzoxazole-6-sulfonamide], for which the IC50 on human Nav1.7 (setting [1]) is 147 nM. On human Nav1.5, the “ratio of Nav 1.5:Nav 1.7 potency” value was determined as 43.
Turning to `Cc1cc2c(cc1S(=O)(=O)Nc1cccc(F)n1)oc(=O)n2Cc1cccc2c1CC(N)CC2` (single isomer, unassigned) [Ex17-5, (R or S)-3-[(7-amino-5,6,7,8-tetrahydronaphthalen-1-yl)methyl]-N-(6-fluoropyridin-2-yl)-5-methyl-2-oxo-2,3-dihydro-1,3-benzoxazole-6-sulfonamide], the IC50 at human Nav1.7 (setting [1]) worked out at 24 nM. Moreover, the “ratio of Nav 1.5:Nav 1.7 potency” value at human Nav1.5 was found to be 310.
Taken in the same sequence, the figures for `Cc1cc2c(cc1S(=O)(=O)Nc1cccc(F)n1)oc(=O)n2Cc1cccc2c1CC(N)CC2` (single isomer, unassigned) [Ex17-6, (S or R)-3-[(7-amino-5,6,7,8-tetrahydronaphthalen-1-yl)methyl]-N-(6-fluoropyridin-2-yl)-5-methyl-2-oxo-2,3-dihydro-1,3-benzoxazole-6-sulfonamide] were 12 nM and 178.
Taken in the same sequence, the figures for `O=c1oc2cc(S(=O)(=O)Nc3cccc(F)n3)c(F)cc2n1Cc1cccc2c1CNCC2F` (single isomer, unassigned; enantiomer 1) [Ex5-10, (R or S)-5-fluoro-N-(6-fluoropyridin-2-yl)-3-[(4-fluoro-1,2,3,4-tetrahydroisoquinolin-8-yl)methyl]-2-oxo-2,3-dihydro-1,3-benzoxazole-6-sulfonamide (enantiomer 1)] were 961 nM and over 31.
Regarding `O=c1oc2cc(S(=O)(=O)Nc3cccc(F)n3)c(F)cc2n1Cc1cccc2c1CNCC2F` (single isomer, unassigned; enantiomer 2) [Ex5-11, (S or R)-5-fluoro-N-(6-fluoropyridin-2-yl)-3-[(4-fluoro-1,2,3,4-tetrahydroisoquinolin-8-yl)methyl]-2-oxo-2,3-dihydro-1,3-benzoxazole-6-sulfonamide (enantiomer 2)], at human Nav1.7 (setting [1]), the IC50 worked out at 727 nM. Moreover, on human Nav1.5, the “ratio of Nav 1.5:Nav 1.7 potency” value is on record as 54.
As to `C[C@H](c1cccc2c1CNCC2)n1c(=O)oc2cc(S(=O)(=O)Nc3cccc(F)n3)ccc21.Cl` [Ex2-5, (R)—N-(6-fluoropyridin-2-yl)-2-oxo-3-(1-(1,2,3,4-tetrahydroisoquinolin-8-yl)ethyl)-2,3-dihydrobenzo[d]oxazole-6-sulfonamide hydrochloride], the IC50 on human Nav1.7 (setting [1]) is 152 nM. Besides, the “ratio of Nav 1.5:Nav 1.7 potency” value at human Nav1.5 came to 316.
In the same order, the values of `C[C@H](c1cccc2c1CNCC2)n1c(=O)oc2cc(S(=O)(=O)Nc3cccc(F)n3)c(F)cc21.Cl` [Ex3-5, (R)-5-fluoro-N-(6-fluoropyridin-2-yl)-2-oxo-3-(1-(1,2,3,4-tetrahydroisoquinolin-8-yl)ethyl)-2,3-dihydrobenzo[d]oxazole-6-sulfonamide hydrochloride] are 99 nM and 158.
Taken in the same sequence, the figures for `Nc1ccc2c(c1)C(n1c(=O)oc3cc(S(=O)(=O)Nc4cccc(F)n4)c(F)cc31)CCC2` (stereo not drawn) [Ex4-4, 3-(7-Amino-1,2,3,4-tetrahydronaphthalen-1-yl)-5-fluoro-N-(6-fluoropyridin-2-yl)-2-oxo-2,3-dihydro-1,3-benzoxazole-6-sulfonamide] were 482 nM and 166.
Regarding `O=c1oc2cc(S(=O)(=O)Nc3cccc(F)n3)c(F)cc2n1C1CCCc2ccc(F)cc21` (stereo not drawn) [Ex4-5, 5-fluoro-N-(6-fluoropyridin-2-yl)-3-(7-fluoro-1,2,3,4-tetrahydronaphthalen-1-yl)-2-oxo-2,3-dlihydro-1,3-benzoxazole-6-sulfonamide], the IC50 on human Nav1.7 (setting [1]) is 650 nM. In addition, the “ratio of Nav 1.5:Nav 1.7 potency” value at human Nav1.5 was 101.
Taken in the same sequence, the figures for `C[C@H](c1ccccc1C1=CCNCC1)n1c(=O)oc2cc(S(=O)(=O)Nc3cccc(F)n3)c(F)cc21` [Ex7-5, (R)-5-Fluoro-N-(6-fluoropyridin-2-yl)-2-oxo-3-(1-(2-(1,2,3,6-tetrahydropyridin-4-yl)phenyl)ethyl)-2,3-dihydrobenzo[d]oxazole-6-sulfonamide] were 3 nM and 1398.
Taken in the same sequence, the figures for `C[C@H](c1ccccc1C1=CCC(N)CC1)n1c(=O)oc2cc(S(=O)(=O)Nc3cccc(F)n3)c(F)cc21` (stereo partly drawn) [Ex7-6, 3-{(1R)-1-[2-(4-aminocyclohex-1-en-1-yl)phenyl]ethyl}-5-fluoro-N-(6-fluoropyridin-2-yl)-2-oxo-2,3-dihydro-1,3-benzoxazole-6-sulfonamide] were 460 nM and 123.
In the same order, the values of `C[C@H](c1ccccc1C1=CCNCCC1)n1c(=O)oc2cc(S(=O)(=O)Nc3cccc(F)n3)c(F)cc21` [Ex7-7, 5-fluoro-N-(6-fluoropyridin-2-yl)-2-oxo-3-{(1R)-1-[2-(2,5,6,7-tetrahydro-1H-azepin-4-yl)phenyl]ethyl}-2,3-dihydro-1,3-benzoxazole-6-sulfonamide] are 41 nM and 239.
Regarding `C[C@H](c1ccccc1C1=C[C@@H]2CC[C@H](C1)N2)n1c(=O)oc2cc(S(=O)(=O)Nc3cccc(F)n3)c(F)cc21` [Ex7-8, 3-[(1R)-1-{2-[(1S,5R)-8-azabicyclo[3.2.1]oct-2-en-3-yl]phenyl}ethyl]-5-fluoro-N-(6-fluoropyridin-2-yl)-2-oxo-2,3-dihydro-1,3-benzoxazole-6-sulfonamide], the IC50 on human Nav1.7 (potency for the Nav 1.7 sodium ion channel (1.7=)) was 81 nM. The “ratio of Nav 1.5:Nav 1.7 potency” value on human Nav1.5 stood at 681.
Turning to `C[C@H](c1cccc(C2=CCNCC2)c1)n1c(=O)oc2cc(S(=O)(=O)Nc3cccc(F)n3)c(F)cc21` [Ex7-10, 5-fluoro-N-(6-fluoropyridin-2-yl)-2-oxo-3-{(1R)-1-[3-(1,2,3,6-tetrahydropyridin-4-yl)phenyl]ethyl}-2,3-dihydro-1,3-benzoxazole-6-sulfonamide], the IC50 at human Nav1.7 (setting [1]) was 127 nM. Also, the “ratio of Nav 1.5:Nav 1.7 potency” value at human Nav1.5 is reported as 331.
`C[C@H](c1cccc(C2=CCCNC2)c1)n1c(=O)oc2cc(S(=O)(=O)Nc3cccc(F)n3)c(F)cc21` [Ex7-11, 5-fluoro-N-(6-fluoropyridin-2-yl)-2-oxo-3-{(1R)-1-[3-(1,2,5,6-tetrahydropyridin-3-yl)phenyl]ethyl}-2,3-dihydro-1,3-benzoxazole-6-sulfonamide]: on human Nav1.7 (setting [1]), the IC50 came to 65 nM. The “ratio of Nav 1.5:Nav 1.7 potency” value at human Nav1.5 is 461.
Regarding `C[C@H](c1ccccc1CCN)n1c(=O)oc2cc(S(=O)(=O)Nc3cccc(F)n3)c(F)cc21` [Ex24-2, 3-{(1R)-1-[2-(2-aminoethyl)phenyl]ethyl}-5-fluoro-N-(6-fluoropyridin-2-yl)-2-oxo-2,3-dihydro-1,3-benzoxazole-6-sulfonamide], the IC50 on human Nav1.7 (setting [1]) is 27 nM and 18 nM.
